Reference: ChEMBL document CHEMBL3885881, “DrugMatrix”

Organism: Rattus norvegicus
Test: DrugMatrix - Regimen: Daily Repeat
Type: toxicity, organism-based, Sprague-Dawley
Parameters: regimen Daily Repeat, gender Male, age 6-8 weeks
Details: in vivo, po, route oral GAVAGE, vehicle 100 % WATER; for ABSOLUTE BASOPHIL / ABSOLUTE EOSINOPHIL / ABSOLUTE LYMPHOCYTE / ABSOLUTE MONOCYTE / ABSOLUTE SEGMENTED NEUTROPHIL / BASOPHIL / EOSINOPHIL / ERYTHROCYTE COUNT / HEMATOCRIT / HEMOGLOBIN / LEUKOCYTE COUNT / LYMPHOCYTE / MEAN CORPUSCULAR HEMOGLOBIN / MEAN CORPUSCULAR HEMOGLOBIN CONCENTRATION / MEAN CORPUSCULAR VOLUME / MONOCYTE / NEUTROPHIL / NUCLEATED RED BLOOD CELLS / PLATELET COUNT: tissue Blood; for ALANINE AMINOTRANSFERASE / ALBUMIN / ALKALINE PHOSPHATASE / ASPARTATE AMINOTRANSFERASE / BLOOD UREA NITROGEN / CARBON DIOXIDE / CHLORIDE / CHOLESTEROL / CREATINE PHOSPHOKINASE / CREATININE / GLUCOSE / LACTATE DEHYDROGENASE / LIPASE / PHOSPHORUS / POTASSIUM / SODIUM / TOTAL BILIRUBIN / TOTAL PROTEIN / URIC ACID: tissue Plasma
[1] = 58 mg/kg, 120 h, dose level Low, time 5 day
[2] = 220 mg/kg, 72 h, dose level High, time 3 day
[3] = 220 mg/kg, 120 h, dose level High, time 5 day

## NC12CC3CC(CC(C3)C1)C2 [AMANTADINE]
[1]
  ABSOLUTE BASOPHIL: 0 CELLS/uL
  ABSOLUTE EOSINOPHIL: 0 CELLS/uL
  ABSOLUTE LYMPHOCYTE: 10747.67 CELLS/uL
  ABSOLUTE MONOCYTE: 83.67 CELLS/uL
  ABSOLUTE SEGMENTED NEUTROPHIL: 1002 CELLS/uL
  BASOPHIL: 0%
  EOSINOPHIL: 0%
  ERYTHROCYTE COUNT: 6.06 x10E6/uL
  HEMATOCRIT: 37.8%
  HEMOGLOBIN: 14.9 G/DL
  LEUKOCYTE COUNT: 11.83 x10E3/uL
  LYMPHOCYTE: 89%
  MEAN CORPUSCULAR HEMOGLOBIN: 24.63 pg
  MEAN CORPUSCULAR HEMOGLOBIN CONCENTRATION: 39.43 G/DL
  MEAN CORPUSCULAR VOLUME: 62.5 fL
  MONOCYTE: 1%
  NEUTROPHIL: 10%
  NUCLEATED RED BLOOD CELLS: 0 /100WBC
  PLATELET COUNT: 1200.33 x10E3/uL
  ALANINE AMINOTRANSFERASE: 44 u/L
  ALBUMIN: 4.27 G/DL
  ALKALINE PHOSPHATASE: 432.67 u/L
  ASPARTATE AMINOTRANSFERASE: 73.33 u/L
  BLOOD UREA NITROGEN: 16 mg/dL
  CARBON DIOXIDE: 31 mmol/L
  CHLORIDE: 100.33 MEQ/L
  CHOLESTEROL: 73.33 mg/dL
  CREATINE PHOSPHOKINASE: 431.33 u/L
  CREATININE: 0.18 mg/dL
  GLUCOSE: 147 mg/dL
  LACTATE DEHYDROGENASE: 336 u/L
  LIPASE: 11.33 u/L
  PHOSPHORUS: 12.13 mg/dL
  POTASSIUM: 6.25 MEQ/L
  SODIUM: 142.77 MEQ/L
  TOTAL BILIRUBIN: 0.23 mg/dL
  TOTAL PROTEIN: 6.27 G/DL
  URIC ACID: 1.43 mg/dL
[2]
  ABSOLUTE BASOPHIL: 0 CELLS/uL
  ABSOLUTE EOSINOPHIL: 0 CELLS/uL
  ABSOLUTE LYMPHOCYTE: 17634 CELLS/uL
  ABSOLUTE MONOCYTE: 192.33 CELLS/uL
  ABSOLUTE SEGMENTED NEUTROPHIL: 940.33 CELLS/uL
  BASOPHIL: 0%
  EOSINOPHIL: 0%
  ERYTHROCYTE COUNT: 5.62 x10E6/uL
  HEMATOCRIT: 36.3%
  HEMOGLOBIN: 14.43 G/DL
  LEUKOCYTE COUNT: 18.77 x10E3/uL
  LYMPHOCYTE: 94%
  MEAN CORPUSCULAR HEMOGLOBIN: 25.7 pg
  MEAN CORPUSCULAR HEMOGLOBIN CONCENTRATION: 39.77 G/DL
  MEAN CORPUSCULAR VOLUME: 64.63 fL
  MONOCYTE: 1%
  NEUTROPHIL: 5%
  NUCLEATED RED BLOOD CELLS: 0 /100WBC
  PLATELET COUNT: 1304.33 x10E3/uL
  ALANINE AMINOTRANSFERASE: 42.33 u/L
  ALBUMIN: 4.23 G/DL
  ALKALINE PHOSPHATASE: 440 u/L
  ASPARTATE AMINOTRANSFERASE: 69 u/L
  BLOOD UREA NITROGEN: 13.67 mg/dL
  CARBON DIOXIDE: 32 mmol/L
  CHLORIDE: 101 MEQ/L
  CHOLESTEROL: 61 mg/dL
  CREATINE PHOSPHOKINASE: 227.67 u/L
  CREATININE: 0.16 mg/dL
  GLUCOSE: 149 mg/dL
  LACTATE DEHYDROGENASE: 138.67 u/L
  LIPASE: 10.67 u/L
  PHOSPHORUS: 11.67 mg/dL
  POTASSIUM: 6.52 MEQ/L
  SODIUM: 143.17 MEQ/L
  TOTAL BILIRUBIN: 0.17 mg/dL
  TOTAL PROTEIN: 5.93 G/DL
  URIC ACID: 1.7 mg/dL
[3]
  ABSOLUTE BASOPHIL: 0 CELLS/uL
  ABSOLUTE EOSINOPHIL: 49 CELLS/uL
  ABSOLUTE LYMPHOCYTE: 15618.33 CELLS/uL
  ABSOLUTE MONOCYTE: 94.33 CELLS/uL
  ABSOLUTE SEGMENTED NEUTROPHIL: 971.67 CELLS/uL
  BASOPHIL: 0%
  EOSINOPHIL: 0.33%
  ERYTHROCYTE COUNT: 5.95 x10E6/uL
  HEMATOCRIT: 37.33%
  HEMOGLOBIN: 14.67 G/DL
  LEUKOCYTE COUNT: 16.73 x10E3/uL
  LYMPHOCYTE: 93.33%
  MEAN CORPUSCULAR HEMOGLOBIN: 24.73 pg
  MEAN CORPUSCULAR HEMOGLOBIN CONCENTRATION: 39.3 G/DL
  MEAN CORPUSCULAR VOLUME: 62.9 fL
  MONOCYTE: 0.67%
  NEUTROPHIL: 5.67%
  NUCLEATED RED BLOOD CELLS: 0 /100WBC
  PLATELET COUNT: 1216.33 x10E3/uL
  ALANINE AMINOTRANSFERASE: 55.33 u/L
  ALBUMIN: 4.13 G/DL
  ALKALINE PHOSPHATASE: 501 u/L
  ASPARTATE AMINOTRANSFERASE: 86.67 u/L
  BLOOD UREA NITROGEN: 14 mg/dL
  CARBON DIOXIDE: 31 mmol/L
  CHLORIDE: 100.67 MEQ/L
  CHOLESTEROL: 67.33 mg/dL
  CREATINE PHOSPHOKINASE: 446.67 u/L
  CREATININE: 0.17 mg/dL
  GLUCOSE: 165.67 mg/dL
  LACTATE DEHYDROGENASE: 167.33 u/L
  LIPASE: 11 u/L
  PHOSPHORUS: 11.4 mg/dL
  POTASSIUM: 6.52 MEQ/L
  SODIUM: 143.23 MEQ/L
  TOTAL BILIRUBIN: 0.23 mg/dL
  TOTAL PROTEIN: 6.3 G/DL
  URIC ACID: 1.77 mg/dL
